Measured values from the NIST ThermoML archive (doi:10.1016/j.jct.2016.10.013).
± gives the expanded uncertainty stated by the source.

Experiments:
[1] = refractive index (Na D-line) (dimensionless); conditions: 293.15 K; 101.33 kPa; Liquid; Standard Abbe refractometry
[2] = activity coefficient (dimensionless); of the first substance listed, at infinite dilution; xn = mol fraction of the nth substance listed; conditions: 101.33 kPa, Liquid, Chromatography, x1 = 0
[3] = 288.15 K; 101.33 kPa; Liquid; Vibrating tube method

## OCCO [1,2-ethanediol]
[1]
  refractive index: 1.4319 ± 0.0004

## C=CCCCCC [1-heptene] + OCCO
[2]; 303.15 K
  activity coefficient: 570 ± 26
[2]; 313.15 K
  activity coefficient: 503 ± 23
[2]; 323.15 K
  activity coefficient: 452 ± 20

## C=CCCCCC [1-heptene] + OCCOCCO
[2]; 304.15 K
  activity coefficient: 84 ± 3.8
[2]; 313.15 K
  activity coefficient: 77.8 ± 3.5
[2]; 323.15 K
  activity coefficient: 73.4 ± 3.3

## C=CCCCCCCC [1-nonene] + OCCO
[2]; 303.15 K
  activity coefficient: 1610 ± 73
[2]; 313.15 K
  activity coefficient: 1300 ± 59
[2]; 323.15 K
  activity coefficient: 1170 ± 53

## C=CCCCCCCC [1-nonene] + OCCOCCO
[2]; 304.15 K
  activity coefficient: 188 ± 8
[2]; 313.15 K
  activity coefficient: 174 ± 8
[2]; 323.15 K
  activity coefficient: 159 ± 7

## C1CCCCC1 [cyclohexane] + OCCO
[2]; 303.15 K
  activity coefficient: 270 ± 12
[2]; 313.15 K
  activity coefficient: 238 ± 11
[2]; 323.15 K
  activity coefficient: 212 ± 10

## C1CCCCC1 [cyclohexane] + OCCOCCO
[2]; 304.15 K
  activity coefficient: 50.6 ± 2.3
[2]; 313.15 K
  activity coefficient: 46.7 ± 2.1
[2]; 323.15 K
  activity coefficient: 43.5 ± 1.9

## C1CCCC1 [cyclopentane] + OCCO
[2]; 303.15 K
  activity coefficient: 163 ± 7
[2]; 313.15 K
  activity coefficient: 149 ± 7
[2]; 323.15 K
  activity coefficient: 133 ± 6

## C1CCCC1 [cyclopentane] + OCCOCCO
[2]; 304.15 K
  activity coefficient: 33.8 ± 1.5
[2]; 313.15 K
  activity coefficient: 31.6 ± 1.4
[2]; 323.15 K
  activity coefficient: 30.1 ± 1.3

## OCCOCCO [diethylene glycol]
[3]
  mass density: 1120.3 ± 2 kg/m3
[1]
  refractive index: 1.4472 ± 0.0004

## CCCCCCC [heptane] + OCCO
[2]; 303.15 K
  activity coefficient: 1200 ± 54
[2]; 313.15 K
  activity coefficient: 1030 ± 47
[2]; 323.15 K
  activity coefficient: 860 ± 39

## CCCCCCC [heptane] + OCCOCCO
[2]; 304.15 K
  activity coefficient: 174 ± 8
[2]; 313.15 K
  activity coefficient: 151 ± 7
[2]; 323.15 K
  activity coefficient: 140 ± 6

## C=CCCCC [hex-1-ene] + OCCO
[2]; 303.15 K
  activity coefficient: 330 ± 15
[2]; 313.15 K
  activity coefficient: 298 ± 13
[2]; 323.15 K
  activity coefficient: 272 ± 12

## C=CCCCC [hex-1-ene] + OCCOCCO
[2]; 304.15 K
  activity coefficient: 56.3 ± 2.5
[2]; 313.15 K
  activity coefficient: 52.4 ± 2.3
[2]; 323.15 K
  activity coefficient: 50.2 ± 2.2

## CCCCCC [hexane] + OCCO
[2]; 303.15 K
  activity coefficient: 716 ± 32
[2]; 313.15 K
  activity coefficient: 620 ± 28
[2]; 323.15 K
  activity coefficient: 543 ± 25

## CCCCCC [hexane] + OCCOCCO
[2]; 304.15 K
  activity coefficient: 112 ± 5
[2]; 313.15 K
  activity coefficient: 102 ± 5
[2]; 323.15 K
  activity coefficient: 94.2 ± 4.2

## CC1CCCCC1 [methylcyclohexane] + OCCO
[2]; 303.15 K
  activity coefficient: 473 ± 21
[2]; 313.15 K
  activity coefficient: 407 ± 18
[2]; 323.15 K
  activity coefficient: 370 ± 17

## CC1CCCCC1 [methylcyclohexane] + OCCOCCO
[2]; 304.15 K
  activity coefficient: 77.2 ± 5.3
[2]; 313.15 K
  activity coefficient: 71.1 ± 4.9
[2]; 323.15 K
  activity coefficient: 66 ± 4.5

## CCCCCCCCC [nonane] + OCCO
[2]; 303.15 K
  activity coefficient: 2960 ± 140
[2]; 313.15 K
  activity coefficient: 2320 ± 110
[2]; 323.15 K
  activity coefficient: 1970 ± 90

## CCCCCCCCC [nonane] + OCCOCCO
[2]; 304.15 K
  activity coefficient: 371 ± 17
[2]; 313.15 K
  activity coefficient: 329 ± 15
[2]; 323.15 K
  activity coefficient: 295 ± 13

## C=CCCCCCC [oct-1-ene] + OCCO
[2]; 303.15 K
  activity coefficient: 962 ± 44
[2]; 313.15 K
  activity coefficient: 819 ± 37
[2]; 323.15 K
  activity coefficient: 736 ± 33

## C=CCCCCCC [oct-1-ene] + OCCOCCO
[2]; 304.15 K
  activity coefficient: 126 ± 6
[2]; 313.15 K
  activity coefficient: 116 ± 5
[2]; 323.15 K
  activity coefficient: 108 ± 5

## CCCCCCCC [octane] + OCCO
[2]; 303.15 K
  activity coefficient: 1960 ± 89
[2]; 313.15 K
  activity coefficient: 1600 ± 73
[2]; 323.15 K
  activity coefficient: 1340 ± 61

## CCCCCCCC [octane] + OCCOCCO
[2]; 304.15 K
  activity coefficient: 249 ± 11
[2]; 313.15 K
  activity coefficient: 223 ± 10
[2]; 323.15 K
  activity coefficient: 203 ± 9

## CCCCC [pentane] + OCCO
[2]; 303.15 K
  activity coefficient: 436 ± 20
[2]; 313.15 K
  activity coefficient: 389 ± 18
[2]; 323.15 K
  activity coefficient: 338 ± 15

## CCCCC [pentane] + OCCOCCO
[2]; 304.15 K
  activity coefficient: 74.1 ± 3.3
[2]; 313.15 K
  activity coefficient: 70.5 ± 3.1
[2]; 323.15 K
  activity coefficient: 66.4 ± 3
